In the NIST ThermoML archive (doi:10.1021/je800664z):

Assay: xn = mol fraction of the nth substance listed
Details: for surface tension liquid-gas: Capillary rise; for mass density / viscosity: 101 kPa, Liquid

C1COCO1 [1,3-dioxolane] + CC(C)CC(C)(C)C
Details | mass density, 288.15 K [kg/m3] | mass density, 298.15 K [kg/m3] | mass density, 308.15 K [kg/m3] | surface tension liquid-gas, 288.15 K [mN/m] | surface tension liquid-gas, 298.15 K [mN/m] | surface tension liquid-gas, 308.15 K [mN/m] | viscosity, 288.15 K [mPa·s] | viscosity, 298.15 K [mPa·s] | viscosity, 308.15 K [mPa·s]
x1 = 0.0501 | 704.03 | 695.41 | 686.72 | 19.37 | 18.57 | 17.58 | 0.529 | 0.48 | 0.431
x1 = 0.1 | 712.38 | 703.47 | 694.59 | 19.55 | 18.75 | 17.78 | 0.528 | 0.478 | 0.432
x1 = 0.15 | 721.22 | 712.11 | 703.08 | 19.7 | 18.92 | 17.93 | 0.527 | 0.478 | 0.432
x1 = 0.2 | 730.61 | 721.42 | 712.28 | 19.83 | 19.07 | 18.08 | 0.527 | 0.479 | 0.433
x1 = 0.25 | 740.66 | 731.37 | 722.16 | 19.97 | 19.2 | 18.23 | 0.528 | 0.479 | 0.433
x1 = 0.3 | 751.51 | 742.15 | 732.81 | 20.08 | 19.33 | 18.37 | 0.532 | 0.48 | 0.433
x1 = 0.35 | 763.25 | 753.76 | 744.31 | 20.22 | 19.47 | 18.53 | 0.536 | 0.483 | 0.434
x1 = 0.4 | 775.92 | 766.31 | 756.72 | 20.38 | 19.63 | 18.72 | 0.541 | 0.487 | 0.438
x1 = 0.45 | 789.66 | 779.89 | 770.11 | 20.57 | 19.82 | 18.93 | 0.547 | 0.492 | 0.442
x1 = 0.5 | 804.59 | 794.63 | 784.66 | 20.78 | 20.03 | 19.15 | 0.554 | 0.498 | 0.447
x1 = 0.55 | 820.88 | 810.69 | 800.5 | 21.02 | 20.3 | 19.42 | 0.561 | 0.504 | 0.453
x1 = 0.6 | 838.7 | 828.25 | 817.8 | 21.32 | 20.6 | 19.72 | 0.568 | 0.511 | 0.46
x1 = 0.65 | 858.32 | 847.56 | 836.8 | 21.63 | 20.93 | 20.05 | 0.576 | 0.519 | 0.467
x1 = 0.7 | 879.84 | 868.87 | 857.72 | 22 | 21.32 | 20.47 | 0.585 | 0.527 | 0.475
x1 = 0.75 | 903.63 | 892.42 | 880.96 | 22.43 | 21.8 | 20.95 | 0.595 | 0.536 | 0.484
x1 = 0.8 | 929.95 | 918.53 | 906.76 | 23 | 22.4 | 21.57 | 0.605 | 0.546 | 0.494
x1 = 0.85 | 959.26 | 947.66 | 935.7 | 23.85 | 23.32 | 22.6 | 0.617 | 0.557 | 0.505
x1 = 0.9 | 992.11 | 980.35 | 968.03 | 25.35 | 24.9 | 24.22 | 0.632 | 0.571 | 0.515
x1 = 0.95 | 1029.19 | 1017.39 | 1004.78 | 28.33 | 27.6 | 26.78 | 0.651 | 0.584 | 0.526
x1 = 1 | 1071.24 | 1059.29 | 1046.85 | 34.37 | 32.55 | 30.67 | 0.667 | 0.596 | 0.535
